Reference: patent US12617818B2, “Compositions and methods for modulating myosin subfragment-2 coiled coil stability and methods for using them” (UNIVERSITY OF NORTH TEXAS, priority 2020, dated 2026)

Tests used:
[1] = test system: human cardiac myosin S2 peptide; assay: Competitive ELISA (cELISA) against polyclonal anti-S2 antibody; assay type: binding; conditions: low-high-low OD trend
Method: Phosphate buffer saline (PBS) contained 0.14 M sodium chloride, 2.7 mM potassium chloride, 1.5 mM potassium phosphate monobasic, and 8.1 mM sodium phosphate dibasic with pH 7.4. Detergent buffer was made with 0.05% triton X-100 in PBS, blocking buffer was made with 3% powdered milk in detergent buffer. Assay buffer contained 100 mM potassium phosphate dibasic, 100 mM potassium phosphate monobasic, 1 M potassium chloride and 10 mM magnesium chloride with pH 7.0. Stocks of primary antibody (polyclonal antibody anti-S2), rabbit skeletal myosin, human cardiac myosin S2 peptide, stabilizer and destabilizer peptide. Secondary antibody conjugated with alkaline phosphatase was anti-guinea pig immunoglobulin G (IgG)-alkaline phosphatase (Sigma-Aldrich, catalog number A5062) produced in goat and isolated by affinity chromatography. Substrate was 5-Bromo-4-chloro-3-indolyl phosphate (BCIP) tablets dissolved in 10 ml of distilled water per tablet and 96 well microtiter plate.
Competitive Enzyme Linked Immunosorbent Assay (cELISA) is a classical immunochemical test to validate the binding efficiency and specificity in lower molar concentrations (Yorde et al., 1976; Voller et al., 1978; Walker, J. M. 1996). In this assay the polyclonal antibody anti-S2 raised against single alpha helix of myosin S2 would be used to compete with stabilizer or destabilizer peptide to bind myosin S2 in rabbit skeletal myosin molecule as well as small human cardiac myosin S2 peptide. This cELISA, thus have two molecules polyclonal anti-S2 and stabilizer peptide which have two binding sites one on rabbit skeletal myosin and the other one being on small human cardiac myosin S2. Since both polyclonal anti-S2 and stabilizer peptide were designed against human β-cardiac myosin S2 they both would have a stronger affinity towards the smaller human β-cardiac myosin S2 peptide against the myosin S2 on rabbit skeletal myosin.
To test the binding specificity and efficiency of stabilizer or destabilizer peptide the following setup was used. Start of the setup would be to coat the wells with rabbit skeletal myosin molecule and add appropriate amount human cardiac myosin S2 peptide that would bind the primary polyclonal anti-S2 antibody and when washed there won't be enough primary polyclonal anti-S2 antibody to bind myosin S2 of rabbit skeletal myosin adsorbed on the wells. When alkaline phosphatase conjugated secondary antibody is added on to the wells, it won't have enough or none primary polyclonal anti-S2 antibody to bind. After addition of color developing BCIP substrate to the wells it would lead to low or no color development leading to lower optical density (OD). […]

[2] = biological target: T1, cardiac muscle myosin S2 peptide wild-type (MYH7) (Homo sapiens, UniProt P12883); assay: FRET of cardiac muscle myosin S2 peptide dimer with anti-S2 peptides; assay type: binding; conditions: Cardiac peptide with Stabilizer
T1 construct: The 19 residue peptide was chemically synthesized; purchased BioSynthesis; Inc; host or cells: chemical synthesis
Description: A small region of myosin subfragment 2 (S2) region of human β-cardiac myosin (MYH7) was selected to be synthesized by BioSynthesis; Inc. The region was selected based on mutations found within this region causing Familial hypertrophic cardiomyopathy (FHC) (Richard et al., 2003). The mutations are located within proximal region of myosin S2 specifically region of 921-939 (FIG. 7). Myosin S2 is an intrinsically unstable coiled coil and the sequence of this region was acquired from Protein Data Bank (PDB). The 19 residue peptide was chemically synthesized. Generated amino acid sequence used is as follow:
Chelate-lanthanide complex was utilized as the donor probe, which is composed of a lanthanide, an antenna, and a chelate. Organic chromophore antenna ([…]) will absorb a photon of light, and it will transfer energy to lanthanide ion (terbium III). This probe excites at 248 nm and emits at 547 nm.
Fluorescein was used as the acceptor probe. […]
In this experiment, luminescence spectrometer, AMNICO-BOWMAN SERIES 2 SPECTROMETER™, was used to detect resonance energy transfer. […] Emission signal generated from decay of molecules was detected by a photomultiplier tube, which contains proper color filters to detect the emitted photons.
FRET measured the dissociation constant (binding affinity) between the myosin S2 dimers and the anti-S2 peptides. […]

| TD (donor lifetime without acceptor) [2] | SMILES | cross specificity to human cardiac myosin S2 and rabbit skeletal myosin S2 [1] |
| --- | --- | --- |
|  | CSCC[C@H](NC(=O)[C@H](CCC(=O)O)NC(=O)[C@H](CCCNC(=N)N)NC(=O)[C@H](CCC(=O)O)NC(=O)[C@H](CC(=O)O)NC(=O)[C@H](CCC(=O)O)NC(=O)[C@H](CC(C)C)NC(=O)[C@H](CCCNC(=N)N)NC(=O)[C@H](CCC(=O)O)NC(=O)[C@H](CC(N)=O)NC(=O)[C@H](CCSC)NC(=O)[C@@H](N)CCC(=O)O)C(=O)N[C@@H](CCCCN)C(=O)N[C@@H](C)C(=O)N[C@@H](CCC(=O)O)C(=O)N[C@@H](CC(C)C)C(=O)N[C@H](C(=O)N[C@@H](C)C(=O)N[C@@H](CCCCN)C(=O)O)[C@@H](C)O [Destabilizer] | cross specific |
| 1.73E−03 | C[C@H](NC(=O)[C@H](CCCCN)NC(=O)[C@H](Cc1ccccc1)NC(=O)[C@H](CCCCN)NC(=O)[C@H](CCCCN)NC(=O)[C@H](CCCCN)NC(=O)[C@H](CCCCN)NC(=O)[C@H](CCCCN)NC(=O)[C@H](CCCCN)NC(=O)[C@H](CCCCN)NC(=O)[C@@H](N)CCCCN)C(=O)N[C@@H](CCCCN)C(=O)N[C@@H](CCCCN)C(=O)N[C@@H](CCCCN)C(=O)N[C@@H](CCCCN)C(=O)N[C@@H](CCCCN)C(=O)N[C@@H](CCCCN)C(=O)O [Stabilizer] |  |
